The results in this text go back to PubChem BioAssay AID2305 (GlaxoSmithKline (GSK), 2010).

This assay relates to P. falciparum 3D7 growth, pLDH absorbance. Description: P. falciparum 3D7 growth inhibition, dose response, strain 3D7 (AID 2305).

For orientation: IC50 means the concentration that inhibits the measured activity by half. A high value points to a need for much substance. On to `CCOc1cc(O)c(-c2nc(N)ncc2-c2ccc3c(c2)OCCO3)cc1CC`, for which the IC50 came to 730 nM.
In turn, `NC(=NCCCCCCCCN=C(N)Nc1ccc(Cl)cc1)Nc1ccc(Cl)cc1` had a 50% inhibitory concentration (IC50) of 590 nM.
For the compound `CCCCCOc1ccc(C=NNc2nc(-c3ccccc3)cc(=O)[nH]2)cc1`, the IC50 worked out at 890 nM.
Take `CN(CCS(C)(=O)=O)Cc1ccc(-c2ccc3ncnc(Nc4ccc(OCc5cccc(F)c5)c(Cl)c4)c3c2)o1`: the IC50 amounted to 680 nM.
To `CC(C)CCNC(=O)[C@@H]1[C@H]2C(=O)N(C3CCCCC3)C(=O)[C@H]2[C@H]2C=C[C@@H]3C(c4ccc(C(C)(C)C)cc4)=NO[C@@H]3N21` belongs 790 nM.
`N[C@@H](CCN1CCC(c2cccc(O)c2)CC1)Cc1ccc(F)c(F)c1`: the concentration for half-maximal inhibition (IC50) was determined as 1110 nM.
`C[C@@H]1CN(c2cnn(Cc3ccc(NC(=O)Nc4ccc(F)cc4[N+](=O)[O-])cc3)c(=O)c2Cl)C[C@H](C)N1` had an IC50 of 810 nM.
Next, `O=C(/C=C/c1c(Cl)cccc1Cl)NC1CCC(CN2[C@@H]3CC[C@H]2CC(c2c[nH]c4ccccc24)C3)CC1` (stereo partly drawn): 840 nM.
Regarding `O=C(NCc1ccc(C(F)(F)F)cc1)c1cccc(-c2nnc(-c3cccc(-c4cncnc4)c3)o2)c1`, the IC50 was 540 nM.
To `COc1cccc(Nc2nc(C)cc(Nc3cccc(C#N)c3)n2)c1` belongs 1080 nM; to `O=C(C1CC1)N1c2ccccc2CCc2ccccc21`, 830 nM.
To `O=C(Nc1cccc(CN2CCCN(Cc3ccc4c(c3)OCO4)CC2)c1)c1ccc2ccccc2c1` belongs 1050 nM; to `FC(F)(F)c1ccc2nc(-c3ccc(-c4cccc(CNCc5cnn(-c6ccccc6)n5)c4)cc3)[nH]c2c1`, 650 nM; to `COC(=O)c1ccc2nc(-c3ccc(C(=O)NC4CCN(Cc5ccccc5)CC4)s3)[nH]c2c1`, 690 nM.
To `c1ccc(COc2ccc(Cn3ccc(-c4ccc(-n5ccnc5)cc4)n3)cc2)cc1` (tested in a mixture with another compound) belongs 1020 nM.
`COc1ccc(CN2CCN(CCOC(c3ccccc3)c3ccc(Cl)cc3)CC2)c(O)c1` (stereo not drawn) returned a 50% inhibitory concentration (IC50) of 710 nM.
Compound `Cc1[nH]c(C)c(-c2ccc(-c3cccc(OC(F)(F)F)c3)nc2)c(=O)c1Cl` yielded a concentration for half-maximal inhibition (IC50) of 70 nM.
Next, `Cc1cc(Nc2ccc(O)cc2)nc2cccc(O)c12`: 740 nM; `COc1cccc(C(=O)[C@H]2C[C@@H]2CN(C)CCC(O)c2ccc(Cl)c(Cl)c2)c1` (stereo partly drawn): 760 nM.
`CCC1(C)N=C(N)N=C(N)N1c1ccc(Cl)cc1` (stereo not drawn) registered a 50% inhibitory concentration (IC50) of 160 nM.
To `COc1ccccc1CNC(=O)CCn1c(=O)[nH]c2ccsc2c1=O` belongs 1040 nM; to `CCc1ccc(S(=O)(=O)Nc2ccc(CCN3CCC(N4CCCCC4)CC3)cc2)cc1`, 990 nM; to `CC(C)CNC(=O)c1cncc(-c2ccc(CN3CCC(N4CCCC4)CC3)cc2)c1`, 690 nM.
Next, `Cc1ccc(NC(=O)N2CCN(CCCCCNC(=O)/C=C/c3ccc(Cl)c(Cl)c3)CC2)cc1C`: 1100 nM; `COc1ccc(F)cc1-c1cccc(CNC2CCN(CC3Cn4c(=O)ccc5ccc(F)c3c54)CC2)c1` (stereo not drawn): 830 nM; `Cc1cc(NC(=O)c2ccc(S(=O)(=O)N(Cc3ccccc3)C(C)C)cc2)no1`: 850 nM.
To `N#Cc1ccc(-c2ccc(C(=O)Nc3ccc4c(c3)CCN(C3CCC3)CC4)nc2)cc1` belongs 700 nM.
On to `COc1cc(Nc2nccc(NCC(O)c3ccc(C(F)(F)F)cc3)n2)cc(OC)c1OC` (stereo not drawn), for which the IC50 came out at 920 nM.
Regarding `CC(=O)C1(c2ccccc2)CCN(CCC2(c3ccc(Cl)c(Cl)c3)CN(C(=O)Nc3cccc(C(F)(F)F)c3)CCO2)CC1` (stereo not drawn), the IC50 is 1050 nM.
To `c1ccc(COc2ccnc(NCCCOc3cccc(CN4CCCCC4)c3)c2)cc1` belongs 990 nM; to `COc1ccc2nccc(NCC3(O)CCC(NCc4cc5c(cn4)OCCO5)CC3)c2n1` (stereo not drawn), 660 nM.
To `CCC(CC)n1c(COC)cc2c3c(N)nc(N)nc3ccc21` belongs 10 nM; to `Cc1nc2ccc3ccc(CNc4ccc5c(c4)CN([C@H](CCC(=O)O)C(=O)O)C5=O)cc3c2c(=O)[nH]1`, 860 nM; to `NCCNc1ccc([N+](=O)[O-])cc1C(=O)Nc1cccc(C(F)(F)F)c1`, 910 nM.
To `O=C(CNCC1CCCCC1)Nc1cc(C(F)(F)F)ccc1Cl` belongs 980 nM; to `COc1ccc2ccccc2c1CCCCN1CCN(CC(c2ccc(F)cc2)N2CCC(N3CCCC3)CC2)CC1` (stereo not drawn), 620 nM; to `Nc1nc(N)c2c(n1)CCc1cc(Br)ccc1-2`, 1130 nM.
The compound `O=C1c2ccccc2CCC1CCN1CC=C(c2c[nH]c3ccccc23)CC1` (stereo not drawn) yielded an IC50 of 700 nM.
`Cc1cccc2[nH]c(-c3ccc(-c4ccc(NC(=O)CN5CCN(C)CC5)cc4)cc3)nc12` registered an IC50 of 790 nM.
To `COc1ccccc1CCNc1nc(C)cc(NCCC(=O)NCCOc2ccccc2)n1` belongs 1370 nM; to `COc1cc(C(=O)N2CCN(C(C)C)CC2)ccc1CN(C)CCCCN1CCN(c2cccc(Cl)c2Cl)CC1`, 700 nM; to `Cc1cc(OCCN2CCCCC2)ccc1NC(=O)c1cccc2c(=O)n(Cc3ccc(Cl)cc3)cnc12`, 1060 nM.
To `OCCN1CCN(Cc2ccc(-c3cccc(-c4nc5ccc(C(F)(F)F)cc5[nH]4)c3)cc2)CC1` belongs 640 nM.
